From patent US12459951B2, “Compounds that interact with RAS superfamily proteins for treatment of cancers, inflammatory diseases, rasopathies, and fibrotic disease” (SHY Therapeutics, LLC, priority 2022, dated 2025)
Where a name gives a salt, the structure may show the parent alone.

Columns and labels:
[1] = system: Erk1/2 phosphorylation; test: Erk1/2 Phosphorylation Assay (western blot), Panc-1; format: cell-based, human; conditions: at 10 μM, * = activation
Protocol: Protocol for Western Erk1/2 Cell-Based Phosphorylation Assay
This assay is referred to as the “Erk1/2 Phosphorylation Assay” throughout this application.
(§1) Cell lines: Human tumor-derived pancreatic cancer cell line Panc-1 (expressing KRas G12D mutant) was purchased from American Type Culture Collection and grown in complete DMEM-High Glucose medium, supplemented with penicillin (100 U/mL), streptomycin (100 μg/mL), and 10% heat-inactivated FBS at 37° C. in a humidified incubator with 5% CO2.
Method 1: Cells were plated at 350000 cells/well density in a 12-well plate, allowed 3 hours to adhere to the plate, then starved in the appropriate medium in the presence of 0.5% FBS overnight. The small molecules to be tested were added to the cells in the final concentration of 10 μM in the presence of 0.3% DMSO for 6 hours incubation at 37° C. For IC50 value determination, serial dilutions of compounds were added to cells under the same conditions. Next, cells were stimulated with 1.5 ng/ml EGF for 15 minutes then cells were lysed with lysis buffer containing 1% Triton X-100, EDTA, and Halt™ Protease & Phosphatase Inhibitor Cocktail (Thermo Scientific). Protein concentration was assessed by BCA protein assay (Thermo Scientific). Phosphorylation level of Erk1/2 was determined by western blot.
Method 2: Cells were plated at 350000 cells/well density in a 12-well plate in 10% FBS. The next day small molecules to be tested were added to the cells in the final concentration of 10 μM in the presence of 0.3% DMSO for 6 hours incubation at 37° C. For IC50 value determination, serial dilutions of compounds were added to cells under the same conditions. Next, cells were lysed with lysis buffer containing 1% Triton X-100, EDTA, and Halt™ Protease & Phosphatase Inhibitor Cocktail (Thermo Scientific). Protein concentration was assessed by BCA protein assay (Thermo Scientific). Phosphorylation level of Erk1/2 was determined by western blot.
(§2) Western blot protocol: Equal amounts of protein (15-50 μg) were separated by SDS-PAGE and transferred to nitrocellulose membranes (Invitrogen by Thermo Fisher Scientific). The membrane was stained with Ponceau S Stain (Boston BioProducts) to verify uniform protein loading. Membranes were blocked with 10% milk and phosphorylation levels of Erk1/2 were assessed by incubating overnight at 4° C. with anti-phospho-p44/42 (Thr202/Tyr204) antibody (Cell Signaling) followed by HRP-conjugated secondary antibody (Jackson Immunoresearch, West Grove, PA). Bands were incubated in Amersham ECL Prime Western Blotting Detection Reagent (GE Healthcare) and visualized using the ChemiDoc MP imaging system (Bio-Rad).

[2] = system: Smad2/Smad3 phosphorylation; test: Phospho-Smad2/3 Inhibition Assay (western blot), Panc-1; format: cell-based, human; conditions: at 10 μM, Panc-1 pancreatic cancer cell line; starred symbols = activation
Protocol: Protocol for Phospho-Smad2/3 Inhibition Assay
This assay is referred to as the “Phospho-Smad2/3 Inhibition Assay” throughout this application.
as §1, with “and mouse muscle myoblast C2C12 were” for “was”, “Glucose,” for “Glucose medium,”
Method: Cells were plated at 350000 cells/well density in a 12-well plate, allowed 3 hours to adhere to the plate, then starved in the appropriate medium in the presence of 0.5% FBS overnight. The small molecules to be tested were added to the cells in the final concentration of 10 μM in the presence of 0.3% DMSO for 3 hours incubation at 37° C. For IC50 value determination, serial dilutions of compounds were added to cells under the same conditions. Next, Panc-1 cells were stimulated with 10 ng/ml TGF-b1 for 1 hour, and C2C12 cells were stimulated with 10 ng/ml TGF-b1 for 20 minutes (recombinant human TGF-b1, R&D Systems). After stimulation cells were lysed with lysis buffer containing 1% Triton X-100, EDTA, and Halt™ Protease & Phosphatase Inhibitor Cocktail (Thermo Scientific). Protein concentration was assessed by BCA protein assay (Thermo Scientific). Phosphorylation level of Smad2/Smad3 was determined by western blot.
as §2, with “Smad2/Smad3” for “Erk1/2”, “the following antibodies: Phospho-Smad2 (Ser465/467) and Phosph-Smad3 (Ser423/425), both from Cell Signaling Technology. Then the membranes were incubated with” for “anti-phospho-p44/42 (Thr202/Tyr204) antibody (Cell Signaling) followed by”

Compound | % inh of Erk1/2 phosphorylation in Panc-1 [1] | % inh of Smad2/3 phosphorylation in Panc-1 [2]
Cc1c(-c2ccn(C)n2)cn2nc(-c3nccn3C)nc(Nc3cc4n(n3)CCC4)c12 [Compound 100, N-(5,6-Dihydro-4H-pyrrolo[1,2-b]pyrazol-2-yl)-5-methyl-2-(1-methyl-1H-imidazol-2-yl)-6-(1-methyl-1H-pyrazol-3-yl)pyrrolo[2,1-f][1,2,4]triazin-4-amine] | C* (46-84% activation) | C* (C* = 46-75% activation)
Cc1c(-c2ccn(C)n2)cn2nc(-c3nccn3C)nc(Nc3cc(OCCO)ncn3)c12 [Compound 101, 2-((6-((5-Methyl-2-(1-methyl-1H-imidazol-2-yl)-6-(1-methyl-1H-pyrazol-3-yl)pyrrolo[2,1-f][1,2,4]triazin-4-yl)amino)pyrimidin-4-yl)oxy) ethan-1-ol] | A* (1-25% activation) | D* (D* = 76-100% activation)
COc1ccnc(Nc2nc(-c3nccn3C)nn3cc(-c4ccn(C)n4)c(C)c23)c1 [Compound 102, N-(4-Methoxypyridin-2-yl)-5-methyl-2-(1-methyl-1H-imidazol-2-yl)-6-(1-methyl-1H-pyrazol-3-yl)pyrrolo[2,1-f][1,2,4]triazin-4-amine] | A* (1-25% activation) | A* (A* = 1-25% activation)
CO[C@H]1C[C@H](Nc2nc(-c3nccn3C)nn3cc(-c4ccn(C)n4)c(C)c23)C1 [Compound 103, N-((1r,3r)-3-Methoxycyclobutyl)-5-methyl-2-(1-methyl-1H-imidazol-2-yl)-6-(1-methyl-1H-pyrazol-3-yl)pyrrolo[2,1-f][1,2,4]triazin-4-amine hydrochloride salt] | A* (1-25% activation) | C* (C* = 46-75% activation)
Cc1c(-c2ccn(C)n2)cn2nc(-c3nccn3C)nc(Nc3cc(C4CC4)[nH]n3)c12 [Compound 104, N-(5-Cyclopropyl-1H-pyrazol-3-yl)-5-methyl-2-(1-methyl-1H-imidazol-2-yl)-6-(1-methyl-1H-pyrazol-3-yl)pyrrolo[2,1-f][1,2,4]triazin-4-amine] | D* (85-100% activation) | D* (D* = 76-100% activation)
Cc1c(-c2ccn(C)n2)cn2nc(-c3nccn3C)nc(Nc3nccc(OCCN(C)C)n3)c12 [Compound 105, N-(4-(2-(Dimethylamino)ethoxy)pyrimidin-2-yl)-5-methyl-2-(1-methyl-1H-imidazol-2-yl)-6-(1-methyl-1H-pyrazol-3-yl)pyrrolo[2,1-f][1,2,4]triazin-4-amine] | A (1-25% inhibition) | A (A = 1-25% inhibition)
Cc1c(-c2ccn(C)n2)cn2nc(-c3nccn3C)nc(Nc3nccn3C)c12 [Compound 106, 5-Methyl-N,2-bis(1-methyl-1H-imidazol-2-yl)-6-(1-methyl-1H-pyrazol-3-yl)pyrrolo[2,1-f][1,2,4]triazin-4-amine] | 0 (0% inhibition) | D* (D* = 76-100% activation)
COc1cncnc1Nc1nc(-c2nccn2C)nn2cc(-c3ccn(C)n3)c(C)c12 [Compound 107, N-(5-Methoxypyrimidin-4-yl)-5-methyl-2-(1-methyl-1H-imidazol-2-yl)-6-(1-methyl-1H-pyrazol-3-yl)pyrrolo[2,1-f][1,2,4]triazin-4-amine] | D* (85-100% activation) | A (A = 1-25% inhibition)
CCc1nc(Nc2nc(-c3nccn3C)nn3cc(-c4ccn(C)n4)c(C)c23)nn1C [Compound 108, N-(5-Ethyl-1-methyl-1H-1,2,4-triazol-3-yl)-5-methyl-2-(1-methyl-1H-imidazol-2-yl)-6-(1-methyl-1H-pyrazol-3-yl)pyrrolo[2,1-f][1,2,4]triazin-4-amine] | A* (1-25% activation) | D* (D* = 76-100% activation)
Cc1c(-c2ccn(C)n2)cn2nc(-c3nccn3C)nc(Nc3cn(C(C)C)nn3)c12 [Compound 109, N-(1-Isopropyl-1H-1,2,3-triazol-4-yl)-5-methyl-2-(1-methyl-1H-imidazol-2-yl)-6-(1-methyl-1H-pyrazol-3-yl)pyrrolo[2,1-f][1,2,4]triazin-4-amine] | B* (26-49% activation) | D* (D* = 76-100% activation)
COc1cnc(Nc2nc(-c3nccn3C)nn3cc(-c4ccn(C)n4)c(C)c23)cn1 [Compound 110, N-(5-Methoxypyrazin-2-yl)-5-methyl-2-(1-methyl-1H-imidazol-2-yl)-6-(1-methyl-1H-pyrazol-3-yl)pyrrolo[2,1-f][1,2,4]triazin-4-amine] | B* (26-49% activation) | A* (A* = 1-25% activation)
Cc1c(-c2ccn(C)n2)cn2nc(-c3nccn3C)nc(Nc3ccn(C4CC4)n3)c12 [Compound 111, N-(1-Cyclopropyl-1H-pyrazol-3-yl)-5-methyl-2-(1-methyl-1H-imidazol-2-yl)-6-(1-methyl-1H-pyrazol-3-yl)pyrrolo[2,1-f][1,2,4]triazin-4-amine] | A* (1-25% activation) | D* (D* = 76-100% activation)
COc1cccnc1Nc1nc(-c2nccn2C)nn2cc(-c3ccn(C)n3)c(C)c12 [Compound 112, N-(3-Methoxypyridin-2-yl)-5-methyl-2-(1-methyl-1H-imidazol-2-yl)-6-(1-methyl-1H-pyrazol-3-yl)pyrrolo[2,1-f][1,2,4]triazin-4-amine] | A* (1-25% activation) | D* (D* = 76-100% activation)
Cc1c(-c2ccn(C)n2)cn2nc(-c3nccn3C)nc(Nc3n[nH]c(C4CC4)n3)c12 [Compound 113, N-(5-Cyclopropyl-1H-1,2,4-triazol-3-yl)-5-methyl-2-(1-methyl-1H-imidazol-2-yl)-6-(1-methyl-1H-pyrazol-3-yl)pyrrolo[2,1-f][1,2,4]triazin-4-amine] | D* (85-100% activation) | D* (D* = 76-100% activation)
COc1ccnc(Nc2nc(-c3nccn3C)nn3cc(-c4ccn(C)n4)c(C)c23)n1.Cl [Compound 114, N-(4-Methoxypyrimidin-2-yl)-5-methyl-2-(1-methyl-1H-imidazol-2-yl)-6-(1-methyl-1H-pyrazol-3-yl)pyrrolo[2,1-f][1,2,4]triazin-4-amine hydrochloride salt] | B* (26-49% activation) | D* (D* = 76-100% activation)
